According to PubChem BioAssay (NCI):
Values joined by “and” are separate entries in the source; they are usually repeats but may differ in a detail not shown here. Identical values can stand only once.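 Values below derive from 48-hour exposures of cells grown in 96-well plates, with endpoints linearly interpolated between the two concentrations bracketing the appropriate inhibition level. GI50 marks 50% less growth. TGI: total growth inhibition.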

Assays:
Assay in all cases: NCI tumour cell line growth inhibition, 48 h
HCC-2998 colon = system: HCC-2998 colon
SNB-75 CNS = system: SNB-75 CNS
K-562 leukemia = system: K-562 leukemia
786-0 renal = system: 786-0 renal
SK-MEL-2 melanoma = system: SK-MEL-2 melanoma
EKVX NSCLC = system: EKVX NSCLC
ACHN renal = system: ACHN renal
SF-295 CNS = system: SF-295 CNS
NCI-H226 lung = system: NCI-H226 lung
BT-549 breast = system: BT-549 breast

Structure (SMILES)	TGI (HCC-2998 colon)	TGI (SNB-75 CNS) [µM]	TGI (K-562 leukemia)	TGI (786-0 renal)	TGI (SK-MEL-2 melanoma) [µM]	TGI (EKVX NSCLC) [µM]	TGI (ACHN renal)	TGI (SF-295 CNS) [µM]	TGI (NCI-H226 lung)	GI50 (HCC-2998 colon) [µM]	GI50 (SNB-75 CNS) [µM]	GI50 (K-562 leukemia) [µM]	GI50 (786-0 renal) [µM]	GI50 (SK-MEL-2 melanoma) [µM]	GI50 (EKVX NSCLC) [µM]	GI50 (ACHN renal) [µM]	GI50 (NCI-H226 lung) [µM]	GI50 (SF-295 CNS) [µM]	GI50 (BT-549 breast) [nM]	TGI (BT-549 breast) [nM]
COc1cc2cnc3c4ccccc4ccc3c2cc1OC	> 100 µM	> 100	> 100 µM	> 100 µM	> 100	> 100	> 100 µM	> 100	–	–	–	–	–	–	–	–	–	–	–	–
CCN(CC)CC(=O)N1CCc2c([nH]c3ccccc23)C1c1cccnc1 (stereo not given)	> 100 µM	> 100	> 100 µM	> 100 µM	–	> 100	> 100 µM	> 100	–	–	–	–	–	–	–	–	–	–	–	–
COc1cccc(/C=C2\CCC(C)(CN(C)C)C2=O)c1 (stereo not given)	> 100 µM	> 100	> 100 µM	> 100 µM	> 100	> 100	> 100 µM	> 100	> 100 µM	–	–	–	–	–	–	–	–	–	–	–
COC1OC(C)C(OCc2ccccc2)C(OS(=O)(=O)c2ccc(C)cc2)C1OS(=O)(=O)c1ccc(C)cc1 (stereo not given)	> 100 µM	> 100	> 100 µM	> 100 µM	> 100	> 100	> 100 µM	> 100	> 100 µM	–	–	–	–	–	–	–	–	–	–	–
CC1(C)OC2COC3(CNO)OC(C)(C)OC3C2O1 (stereo not given)	> 100 µM	> 100	> 100 µM	> 100 µM	> 100	> 100	> 100 µM	> 100	> 100 µM	–	–	–	–	–	–	–	–	–	–	–
C[n+]1c2ccccc2cc2c(CNC(CCCN=C(N)N)C(=O)O)cccc21 (stereo not given)	5.67 µM and 16.7 µM	10.8	1.09 µM and 7.63 µM	2.19 µM and 1.59 µM	7.25	10.2	1.83 µM and 2.05 µM	17.5	7.63 µM and 35.8 µM	5.14	1.82	0.485	0.443	0.957	2.68	0.486	7.76	5.03	–	–
CC/C(=N\NS(=O)(=O)c1ccccc1)c1ccccc1	> 100 µM	> 100	> 100 µM	> 100 µM	> 100	> 100	> 100 µM	> 100	> 100 µM	–	–	–	–	–	–	–	–	–	–	–
Cl[Si]1(Cl)Oc2ccccc2O[Si](Cl)(Cl)Oc2ccccc2O1	53.5 µM	99.1	40.9 µM	21.5 µM	73.8	> 100	> 100 µM	98.2	> 100 µM	–	–	–	–	–	–	–	–	–	–	–
c1ccc(Cn2cnc3ccc(-c4nc(-c5ccc6c(c5)ncn6C5CCCCC5)cn5ccnc45)cc32)cc1	3.41 µM	–	–	> 100 µM	4.85	–	> 100 µM	–	–	1.9	–	–	0.799	2.02	–	3.08	–	–	1200	2680
CC(=O)OC1COC(n2c(=S)n(-c3ccccc3)c(=O)c3cc(Br)ccc32)C(OC(C)=O)C1OC(C)=O (stereo not given)	> 100 µM	30.6	> 100 µM	> 100 µM	> 100	> 100	> 100 µM	> 100	> 100 µM	–	–	–	–	–	–	–	–	–	–	–
CSc1c(C)c(C)nn1-c1ccccc1	> 100 µM	> 100	> 100 µM	> 100 µM	> 100	> 100	> 100 µM	> 100	–	–	–	–	–	–	–	–	–	–	–	–
Cc1cn(C2OC(C)(CO)C(O)C2O)c(=O)[nH]c1=O (stereo not given)	> 100 µM	> 100	> 100 µM	> 100 µM	> 100	–	> 100 µM	> 100	–	–	–	–	–	–	–	–	–	–	–	–
Cc1ccc2nc3c(Cl)c(C)c(=O)cc-3sc2c1	> 100 µM	> 100	> 100 µM	> 100 µM	> 100	> 100	> 100 µM	> 100	> 100 µM	> 100	31.6	–	96.3	51.1	63.3	39.7	60	–	–	–
CC(=O)N(C(C)=O)C1=C2c3ccccc3N(S(=O)(=O)c3ccccc3)C2n2c(=O)n(-c3ccccc3)c(=O)n2C1 (stereo not given)	62.4 µM	51.3	> 100 µM	> 100 µM	47.5	61.9	> 100 µM	> 100	–	–	–	–	–	–	–	–	–	–	–	–
O=C/C(=C(/Cl)c1ccc(O)cc1)c1ccccc1	> 100 µM	> 67.2	> 100 µM	> 66.3 µM	81.6	> 75.7	50.2 µM	> 72.2	> 100 µM	–	–	–	–	–	–	–	–	–	–	–
c1ccc2nc3c(cc4ccccn43)nc2c1	> 100 µM	–	> 100 µM	> 100 µM	> 100	> 100	> 100 µM	> 100	–	61.8	–	> 100	35.7	43.8	18.9	60.2	–	49.8	> 100000	> 100000
C=CCC1[C@@H](C(C)(C)C(C(C)=O)C(=O)C(=O)OC)OC(C(C)(C)C)N1C(=O)OC (stereo not given in full)	> 100 µM	> 100	> 100 µM	> 100 µM	> 100	> 100	> 100 µM	> 100	> 100 µM	–	–	–	–	–	–	–	–	–	–	–
CC(CC(=O)Nc1ccc(NC(=O)CC(C)N=NC(N)=S)cc1)N=NC(N)=S (stereo not given)	> 100 µM	> 100	> 100 µM	> 100 µM	> 100	> 100	> 100 µM	> 100	> 100 µM	–	–	–	–	–	–	–	–	–	–	–
C#CCC(N)(CO)C(=O)O (stereo not given)	> 100 µM	> 100	> 100 µM	> 100 µM	> 100	> 100	> 100 µM	> 100	> 100 µM	–	–	–	–	–	–	–	–	–	–	–
CC(=O)[CH-]C(C)=O.[CH2-]C.[CH2-]C.[Tl+3]	> 100 µM	> 100	> 100 µM	> 100 µM	> 100	> 100	> 100 µM	> 100	> 100 µM	> 100	> 100	> 100	> 100	> 100	> 100	> 100	> 100	> 100	–	–
Cc1ccc(S(=O)(=O)N/N=C(\c2nc3ccc([N+](=O)[O-])cc3[nH]c2=O)C(O)c2ccccc2Cl)cc1 (stereo not given)	> 100 µM	> 100	> 100 µM	> 100 µM	> 100	> 100	> 100 µM	> 100	> 100 µM	–	–	–	–	–	–	–	–	–	–	–
